Measured values from ChEMBL document CHEMBL5260817, “Polyamine-based analogs and conjugates as antikinetoplastid agents” (Eur J Med Chem, 2017).
pIC50, pKi: −log10 of the molar value. Where “and” joins values, the source holds several entries; their conditions need not be identical. Equal entries are not always repeated.

Key:
Trypanothione reductase [1] = target: T1, Trypanothione reductase (Trypanosoma cruzi, UniProt P28593); assay: Inhibition of Trypanosoma cruzi TryR assessed as inhibition constant in presence of NADPH
Trypanothione reductase [2] = target: T1, Trypanothione reductase; assay: Inhibition of Trypanosoma cruzi TryR assessed as inhibition constant
Bacteria [3] = assay: Inhibition of TryS (unknown origin) at 10 uM relative to control
Trypanosoma cruzi [4] = assay: Antiprotozoal activity against Trypanosoma cruzi epimastigotes; format: functional, organism-based
[5] = Inhibition of Trypanosoma brucei MetRS
Trypanosoma brucei [6] = assay: Antiprotozoal activity against Trypanosoma brucei; format: functional, organism-based
Trypanothione reductase [7] = target: T1, Trypanothione reductase; assay: Inhibition of Trypanosoma cruzi TryR
[8] = tested on: Trypanosoma brucei brucei; assay: Antiprotozoal activity against Trypanosoma brucei brucei; format: functional, organism-based
[9] = target: Glutathione reductase, mitochondrial (Homo sapiens, UniProt P00390); assay: Inhibition of human glutathione reductase
Leishmania braziliensis [10] = assay: Antiprotozoal activity against Leishmania braziliensis MHOM/PE/84/LC26 amastigotes infected in mouse J774.2 cells measured after 72 hrs; format: functional, organism-based; settings: J774.2, 72 h
Leishmania donovani [11] = assay: Antiprotozoal activity against Leishmania donovani amastigotes assessed as growth inhibition measured after 7 days relative to control; format: functional; settings: time 7 day
Leishmania donovani [12] = assay: Antiprotozoal activity against Leishmania donovani promastigotes; format: functional, organism-based
Trypanothione reductase [13] = target: Trypanothione reductase (Trypanosoma brucei brucei, UniProt P39051); assay: Inhibition of Trypanosoma brucei TryR assessed as inhibition constant
Trypanosoma brucei [14] = assay: Trypanocidal activity against Trypanosoma brucei K 243-As-10-3 strain; format: functional, organism-based
Trypanosoma brucei [15] = assay: Trypanocidal activity against Trypanosoma brucei K 269 strain; format: functional, organism-based
Trypanosoma brucei [16] = assay: Trypanocidal activity against Trypanosoma brucei K 243 strain; format: functional, organism-based
Trypanosoma brucei [17] = assay: Trypanocidal activity against Trypanosoma brucei Lab 110 strain; format: functional, organism-based
Leishmania donovani [18] = assay: Antiprotozoal activity against Leishmania donovani MHOM/SD/00/1S-2D strain promastigotes assessed as parasitic death; format: functional, organism-based
Leishmania donovani [19] = assay: Antiprotozoal activity against Leishmania donovani MHOM/SD/00/1S-2D strain promastigotes assessed as parasitic death at 10 uM relative to control; format: functional
Trypanosoma = assay: Inhibition of Trypanosomal TryS at 10 uM relative to control
[20] = Inhibition of TryR (unknown origin) assessed as inhibition constant; design: species or system Bacteria
Bacteria [21] = assay: Inhibition of TryR (unknown origin) at 10 uM relative to control
Leishmania amazonensis [22] = assay: Antiprotozoal activity against Leishmania amazonensis promastigotes measured after 48 hrs by MTT assay; format: functional, organism-based
Leishmania donovani [23] = assay: Antiprotozoal activity against Leishmania donovani promastigote at 10 uM relative to control; format: functional
Trypanosoma cruzi [24] = assay: Antiprotozoal activity against Trypanosoma cruzi MG strain epimastigotes; format: functional, organism-based
Trypanosoma cruzi [25] = assay: Antiprotozoal activity against Trypanosoma cruzi JEM strain epimastigotes; format: functional, organism-based
Leishmania amazonensis [26] = assay: Antiprotozoal activity against Leishmania amazonensis PH8 strain […] assessed as […] at 10 ug/ml relative to control; format: functional; settings: dose 10 µg/ml
Leishmania braziliensis [27] = assay: Antiprotozoal activity against Leishmania braziliensis 2903 strain […] assessed as […] at 10 ug/ml relative to control; format: functional; settings: dose 10 µg/ml
Leishmania donovani [28] = assay: Antiprotozoal activity against Leishmania donovani PP75 strain […] assessed as […] at 10 ug/ml relative to control; format: functional; settings: dose 10 µg/ml
Leishmania donovani [29] = assay: Antiprotozoal activity against Leishmania donovani MHOM/IN/1978/UR6 strain promastigotes assessed as parasite growth inhibition; format: functional, organism-based
[30] = tested on: Trypanosoma brucei rhodesiense; assay: Antiprotozoal activity against Trypanosoma brucei rhodesiense; format: functional, organism-based
Trypanosoma brucei [31] = assay: Trypanocidal activity against Trypanosoma brucei trypomastigotes; format: functional, organism-based

T1 sequence (P28593 whole entry): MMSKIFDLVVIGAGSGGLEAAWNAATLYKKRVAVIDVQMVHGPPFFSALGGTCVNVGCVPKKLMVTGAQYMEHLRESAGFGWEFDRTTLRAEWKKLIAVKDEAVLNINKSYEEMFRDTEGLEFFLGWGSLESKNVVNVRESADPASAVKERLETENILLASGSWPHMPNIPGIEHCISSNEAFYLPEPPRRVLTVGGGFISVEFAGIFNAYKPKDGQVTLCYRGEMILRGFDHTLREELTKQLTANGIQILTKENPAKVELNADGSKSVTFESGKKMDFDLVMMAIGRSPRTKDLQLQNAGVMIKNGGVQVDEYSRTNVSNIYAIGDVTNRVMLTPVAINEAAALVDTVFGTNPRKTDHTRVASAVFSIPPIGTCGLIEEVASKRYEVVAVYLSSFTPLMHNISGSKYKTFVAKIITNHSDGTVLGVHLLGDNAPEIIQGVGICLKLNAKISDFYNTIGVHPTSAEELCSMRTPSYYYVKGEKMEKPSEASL
Sequence of Trypanothione reductase (Trypanosoma brucei brucei, UniProt P39051) (P39051 whole entry): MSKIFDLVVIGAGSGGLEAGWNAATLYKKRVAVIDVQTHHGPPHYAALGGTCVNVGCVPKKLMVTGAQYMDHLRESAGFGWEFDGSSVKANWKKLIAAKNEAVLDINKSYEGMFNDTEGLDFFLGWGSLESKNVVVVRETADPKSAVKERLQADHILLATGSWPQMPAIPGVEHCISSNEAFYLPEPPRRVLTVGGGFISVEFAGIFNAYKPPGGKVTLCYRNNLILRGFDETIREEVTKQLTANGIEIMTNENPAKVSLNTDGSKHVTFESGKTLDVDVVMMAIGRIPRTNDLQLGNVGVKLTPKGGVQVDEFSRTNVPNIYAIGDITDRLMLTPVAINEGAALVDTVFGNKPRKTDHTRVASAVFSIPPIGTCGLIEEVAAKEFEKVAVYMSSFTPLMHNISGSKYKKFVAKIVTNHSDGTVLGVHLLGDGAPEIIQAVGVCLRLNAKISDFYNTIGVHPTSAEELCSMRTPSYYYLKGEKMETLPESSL
Sequence of Glutathione reductase, mitochondrial (P00390 whole entry): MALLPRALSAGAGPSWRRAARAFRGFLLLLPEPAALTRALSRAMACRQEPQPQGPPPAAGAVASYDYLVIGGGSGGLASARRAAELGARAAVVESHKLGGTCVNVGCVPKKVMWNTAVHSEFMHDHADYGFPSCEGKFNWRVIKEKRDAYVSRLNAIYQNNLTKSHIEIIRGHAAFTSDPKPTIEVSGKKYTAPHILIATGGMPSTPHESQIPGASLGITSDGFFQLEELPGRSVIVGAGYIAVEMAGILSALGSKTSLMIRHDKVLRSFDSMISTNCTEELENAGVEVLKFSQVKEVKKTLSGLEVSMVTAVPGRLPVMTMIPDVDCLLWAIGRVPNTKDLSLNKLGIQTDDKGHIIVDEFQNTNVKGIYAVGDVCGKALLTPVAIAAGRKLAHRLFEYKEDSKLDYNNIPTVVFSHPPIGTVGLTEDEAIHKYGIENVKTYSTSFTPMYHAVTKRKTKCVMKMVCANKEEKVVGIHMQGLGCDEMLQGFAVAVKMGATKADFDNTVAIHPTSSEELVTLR

Compound: O=C(NCCCCNCCCNC(=O)C(F)(F)F)C(F)(F)F
- pKi (Trypanothione reductase [1]): < 2.70

Compound: NCCCCN(CCCN)Cc1ccccc1
- pKi (Trypanothione reductase [2]): < 4.00

Compound: NCCCCNCCCNC(=O)CN1C(=O)Cc2c([nH]c3ccc(Br)cc23)-c2ccccc21
- inhibition (Bacteria [3]): 22%

Compound: CCCCCCCCCCNCCCCCCN
- pIC50 (Trypanosoma cruzi [4]): 4.84

Compound: NCCCCN(CCCN)C(=O)OCc1ccccc1
- pKi (Trypanothione reductase [2]): < 4.00

Compound: Clc1cc(Cl)cc(CNCCCNc2nc3ncccc3[nH]2)c1
- pIC50 [5]: 9.00
- pIC50 (Trypanosoma brucei [6]): 8.40

Compound: NCCCN1CCN(CCCNC2=C(c3c[nH]c4ccccc34)C(=O)N(CCCN3CCN(CCCN)CC3)C2=O)CC1
- pIC50 (Trypanothione reductase [7]): 5.27

Compound: CC[C@H](C)CNCCCNCCCCCCCNCCCNC[C@@H](C)CC
- pIC50 [8]: 7.40

Compound: CC(=O)NCCCCNCCCNC(C)=O
- pKi (Trypanothione reductase [1]): < 2.70

Compound: CCCCN(CCCC)CCCNC(=O)CCCCC1=C(C)C(=O)c2cccc(O)c2C1=O
- pIC50 [9]: < 4.40

Compound: CN1CCN(CCC(=O)Nc2cc(Br)ccc2Sc2cccc(NC(=O)CCCC(=O)Nc3cccc(Sc4ccc(Br)cc4NC(=O)CCN4CCN(C)CC4)c3)c2)CC1
- pIC50 (Leishmania braziliensis [10]): 6.26

Compound: COC(=O)/N=C(\NCCCN1CCN(C)CC1)NC(=O)OC
- inhibition (INH) (Leishmania donovani [11]): 85%

Compound: NCCCN(Cc1ccc(OCc2ccc(Br)cc2)cc1)Cc1ccc(OCc2ccc(Br)cc2)cc1
- pIC50 (Leishmania donovani [12]): > 6.00

Compound: c1ccc(CCCNCCCNCCCCNCCCNCCCc2ccccc2)cc1
- pKi (Trypanothione reductase [13]): 4.92
- pIC50 (Trypanosoma brucei [14]): 6.00
- pIC50 (Trypanosoma brucei [15]): 6.00
- pIC50 (Trypanosoma brucei [16]): 6.00
- pIC50 (Trypanosoma brucei [17]): 6.00

Compound: c1ccc(CNCCCNCCCCNCCCNCc2ccccc2)cc1
- pKi (Trypanothione reductase [13]): 4.72

Compound: COc1ccc2nc3cc(Cl)ccc3c(NCCCCNCCCNc3c4ccc(Cl)cc4nc4ccc(OC)cc34)c2c1
- pIC50 (Leishmania donovani [18]): 6.00
- inhibition at 10 µM (Leishmania donovani [19]): 90%

Compound: NCCNC(=O)CN1C(=O)Cc2c([nH]c3ccc(Br)cc23)-c2ccccc21
- inhibition (Trypanosoma): 80%

Compound: Fc1ccc2[nH]c(NCCCNCc3cc(Cl)cc(Cl)c3)nc2n1
- pIC50 [5]: 9.00
- pIC50 (Trypanosoma brucei [6]): 8.40

Compound: COc1cc(CN(CCCN)Cc2ccc(OCc3ccccc3)c(OC)c2)ccc1OCc1ccccc1
- pIC50 (Leishmania donovani [12]): > 6.00

Compound: O=C(NCCCCNCCCNC(=O)c1cnc2cc(C(F)(F)F)ccc2c1O)c1cnc2cc(C(F)(F)F)ccc2c1O
- pKi [20]: 6.07

Compound: O=C(Cc1c[nH]c2cc(Br)ccc12)NCCCNCCCCNCCCNC(=O)Cc1c[nH]c2cc(Br)ccc12
- pKi [20]: 7.12 and 7.10
- inhibition (Bacteria [21]): 98%

Compound: COc1cc(CN(CCCN)Cc2ccc(OCc3ccc(Br)cc3)c(OC)c2)ccc1OCc1ccc(Br)cc1
- pIC50 (Leishmania donovani [12]): > 6.00

Compound: N=C(NCCCNCCCCCCCNCCCNC(=N)NC1CCCCCC1)NC1CCCCCC1
- pIC50 [8]: < 4.82

Compound: CNCCNC(=O)CN1C(=O)Cc2c([nH]c3ccc(Br)cc23)-c2ccccc21
- inhibition (Trypanosoma): 90%

Compound: CC(C)=CCC/C(C)=C/CC/C(C)=C/CN1CCNCC1
- pIC50 (Leishmania amazonensis [22]): 4.89

Compound: c1ccc(CCCNCCCN(CCCCN(CCCNCCCc2ccccc2)CCCc2ccccc2)CCCc2ccccc2)cc1
- pKi (Trypanothione reductase [13]): 6.22
- pIC50 (Trypanosoma brucei [14]): 7.00
- pIC50 (Trypanosoma brucei [15]): 7.00
- pIC50 (Trypanosoma brucei [16]): 7.00
- pIC50 (Trypanosoma brucei [17]): 7.00

Compound: COc1ccc2nc3cc(Cl)ccc3c(NCCCCCCCCNc3c4ccc(Cl)cc4nc4ccc(OC)nc34)c2c1
- inhibition at 10 µM (Leishmania donovani [23]): 42%

Compound: O=C(Cc1c[nH]c2ccccc12)NCCCCNCCCNC(=O)Cc1c[nH]c2ccccc12
- inhibition (Bacteria [21]): 95%

Compound: CCCCCCCCCCCCCCC(N)CN (stereo not drawn)
- pIC50 (Trypanosoma cruzi [24]): < 4.72
- pIC50 (Trypanosoma cruzi [25]): < 4.72

Compound: CCCCCCCCCCCCCCC(CN(CC)CC)NC(=O)OC(C)(C)C (stereo not drawn)
- Activity (Leishmania amazonensis [26]): 80%
- Activity (Leishmania braziliensis [27]): 80%
- Activity (Leishmania donovani [28]): 80%

Compound: CCCCN(CCCC)CCCNC(=O)CCCCC1=C(C)C(=O)c2ccccc2C1=O
- pIC50 [9]: < 4.40

Compound: CCCCCCCCCCCCCC(=O)NCCCC(=O)N(CC(=O)Nc1cccc(Sc2ccc(Br)cc2NC(=O)CCN2CCN(C)CC2)c1)C(=O)Nc1ccccc1Sc1ccc(Br)cc1NC(=O)CCN1CCN(C)CC1
- pIC50 (Trypanothione reductase [7]): 6.70

Compound: NCCCCN(CCCN)Cc1ccc2ccccc2c1
- pKi (Trypanothione reductase [2]): < 4.00

Compound: c1ccc(CNCCCCNCCCCCCCCCCCCNCCCNCc2ccccc2)cc1
- pIC50 (Leishmania donovani [29]): 5.40

Compound: CN1CCN(CCC(=N)Nc2cc(Cl)ccc2Sc2ccccc2)CC1
- pIC50 [30]: 5.81

Compound: CCCCN(CCCC)CCCNC(=O)CCCC1=C(CCCC(=O)NCCCN(CCCC)CCCC)C(=O)c2c(O)cccc2C1=O
- pIC50 (Trypanothione reductase [7]): 6.22

Compound: O=C1CC[C@]23/C=C/C(=O)NCCCCNCCCNC(=O)/C=C/c4ccc(c2c4)O[C@@H]3C1
- pKi [20]: 3.94
- pIC50 (Trypanosoma brucei [31]): 4.19
